According to publication PMC9138090, “Study on the Neuroprotective, Radical-Scavenging and MAO-B Inhibiting Properties of New Benzimidazole Arylhydrazones as Potential Multi-Target Drugs for the Treatment of Parkinson’s Disease” (Antioxidants, 2022):
Structures can show the parent of a compound that is named as a salt.

Columns and labels:
rat brain synaptosomes [1] = experiment: 6-OHDA-induced neurotoxicity, synaptosomal viability; assay type: cell-based; conditions: for increase of synaptosomal viability vs. 6-OHDA treatment: 10 µM pretreatment, 6-OHDA 1 h
Protocol: (§1) Synaptosomes were prepared from brains of adult male Wistar rats. The brains were homogenized in 10 volume of cold buffer 1, containing 5 mM HEPES and 0.32 M sucrose (pH = 7.4). The brain homogenate was centrifuged twice at 1000× g for 5 min at 4 °C. The supernatant was collected and centrifuged 3 times at 10,000× g for 20 min at 4 °C. The pellet was re-suspended in ice-cold buffer 1. The synaptosomes were isolated by using Percoll reagent to prepare the gradient. Synaptosomes were re-suspended and incubated in buffer 2, containing 290 mM NaCl, 0.95 mM MgCl2 × 6H2O, 10 mM KCl, 2.4 mM CaCl2 × H2O, 2.1 mM NaH2PO4, 44 mM HEPES, and 13 mM D-glucose. Incubations were performed in a 5% CO2 + 95% O2 atmosphere. The content of synaptosomal protein was determined according to the method of Lowry et al. using bovine serum albumin as a standard.
Synaptosomal viability was measured by (3-(4,5)-dimethylthiazol-2-yl)-2,5-diphenyl tetrazolium bromide)-test, described by Mungarro-Menchaca et al. The synaptosomes were incubated with the compounds and then treated with (3-(4,5)-dimethylthiazol-2-yl)-2,5-diphenyl tetrazolium bromide) solution (0.5 mg/mL) for 1 h at 37 °C. After incubation they were centrifuged at 15,000× g for 1 min. The formed formazan crystals were dissolved in DMSO (Dimethyl sulfoxide). The extinction was measured spectrophotometrically at λ = 580 nm.
(§2) The metabolism and oxidation of dopamine cause reactive oxygen radicals and reactive quinones to be produced, which could lead to neurotoxicity and neurodegeneration. The synaptosomes were incubated with the compounds (10 µM) for 30 min and then 6-hydroxydopamnine (150 mmol/L) was used to induce neurotoxicity. […] After 1 h, they were centrifuged on a microcentrifuge for 1 min at 15,000 rpm. The precipitates were gently mixed with buffer B and glucose and centrifuged for a second time at 15,000 rpm for 1 min. After the second wash, buffer B and glucose were added to the precipitates.
(§3) In the presented experiments, an in vitro assessment of the possible antioxidant and neuroprotective effects of the newly synthetized compounds was performed in a model of 6-OHDA induced toxicity in rat brain synaptosomes. 6-OHDA is a neurotoxicant that structurally resembles dopamine and can be used in different in vivo and in vitro models for neurotoxicity. This model resembles the histological, biochemical, and physiological characteristics of neurodegenerative diseases such as Parkinson’s and Alzheimer’s disease. […] However, their uptake into brain synaptosomes is similar among primates and rodents and they are suitable in vitro models for PD. The main mechanism of 6-OHDA toxicity includes induction of oxidative stress. It undergoes auto-oxidation or metabolic degradation to p-quinone and produces hydrogen peroxide, superoxide, and hydroxyl radicals. The process causes lipid peroxidation, protein oxidation, and DNA oxidation and finally results in oxidative stress and mitochondrial dysfunction. Rat brain synaptosomes were pretreated with compounds 3e, 3h, 3i, 3m, melatonin, and rasagiline (10 μM); after that, the samples were subjected to 6-OHDA (150 mmol/L, 1 h). The protective effects were evaluated by measurement of synaptosomal viability (MTT-test) and GSH levels (Figure 3).

rat brain synaptosomes [2] = experiment: 6-OHDA-induced neurotoxicity, GSH level; assay type: cell-based; conditions: for restoration of GSH level vs. 6-OHDA treatment: 10 µM pretreatment, 6-OHDA 150 mmol/L 1 h
Protocol: as §1, §2, §3

[3] = MTT cytotoxicity on SH-SY5Y cells; assay type: cell-based, human; conditions: human, SH-SY5Y neuroblastoma cells, MTT test, 24 h incubation; read-out: IC50, in vitro cytotoxicity on SH-SY5Y cells
Protocol: Human neuroblastoma cell line SH-SY5Y was obtained from the European Collection of Cell Cultures (ECACC, Salisbury, UK). The cells were maintained in 75 cm^2 flasks at 37 °C in a humidified atmosphere with 5% CO2 and cultured in RPMI 1640 medium, supplemented with 10% fetal bovine serum and 2 mM L-glutamine.
MTT (Sigma-Aldrich Chemie GmbH, Schnelldorf, Germany) assay is based on interaction between tetrazolium dye 3-(4,5-dimethylthiazol-2-yl)-2,5-diphenyltetrazolium bromide and succinic dehydrogenase in the living cells’ mitochondria. In this reaction, the formed purple formazan crystals indicate the presence of viable cells. SH-SY5Y cells were seeded in 96-well microplates at a density 2.5 × 10^4 cells/well and allowed to attach to the well surface at 37 °C in a humidified atmosphere with 5% CO2 (24 h). Different concentrations of compounds ([…]) were added to cells and incubated for 24 h. For each concentration, a set of at least 8 wells were used. After the treatment, the solution in each well was substituted with MTT (3-(4,5-dimethylthiazol-2-yl)-2,5-diphenyltetrazolium bromide) solution (0.5 mg/mL in culture medium). The microplates were further incubated for 3 h at 37 °C and the obtained formazan crystals were dissolved by 100 µL/well of DMSO. The absorbance was measured in a multiplate reader Synergy 2 (BioTek Instruments, Inc, Highland Park, Winooski, VT, USA) at 570 nm (690 nm for background absorbance).
An important step in the development of new pharmacologically active compounds is the establishment of their safety profile. An in vitro toxicity evaluation was carried out on the neuroblastoma cell line SH-SY5Y, which is a well-established model in neuroscience. The neuroblastoma SH-SY5Y are human derived cells with relatively homogeneous neuroblast-like structure. The cells express a dopamine-β-hydroxylase and tyrosine hydroxylase enzyme activity, specific types of human proteins and protein isoforms. The possible neurotoxic effects of the potential drug candidates were measured by cell viability assay (MTT-test). The IC50 values were used as a robust parameter for comparison. The test compounds were dissolved in DMSO and serially diluted in cell culture medium to achieve final concentrations ranging from 1 to 500 µM; the culture medium containing DMSO in the corresponding concentration was used as untreated controls. A concentration dependent effect on cell viability was observed after 24 h incubation.

SH-SY5Y cells = experiment: H2O2-induced oxidative stress model in SH-SY5Y cells; assay type: cell-based, human; conditions: 90 min pre-incubation, H2O2 1 mM 15 min
Protocol: SH-SY5Y cells were seeded in 96-well plates at a density of 3.5 × 10^4/well and allowed to attach at the wells’ bottom overnight. […] Afterwards, the SH-SY5Y cells were washed with phosphate-buffered saline (PBS) to remove the extracellular amount of the test compounds. […] Then, the contents of all wells were changed with culture medium. After 24 h, the amount of attached viable cells was evaluated by MTT assay. […] Rasagiline and melatonin (Sigma-Aldrich Chemie GmbH) were used as reference compounds because of their well-established neuroprotective activity. […] The toxic mechanisms of hydrogen peroxide include the generation of reactive hydroxyl radicals and formation of products which could damage cellular lipids, proteins and DNA. […] For comparison, the effects of two compounds with well established antioxidant activity—rasagiline and melatonin—were also evaluated.

[4] = Fe(II)-induced oxidative damage of lecithin (TBA-RS); conditions: 90 µmol/L, lecithin 1 mg/mL, FeCl2 0.1 mmol/L
Protocol: The classical method of determining the TBA-reactive substances at 532 nm as described by Asakawa and Matsushita has been used. Two groups of measurement compositions named controls and samples were prepared in phosphate buffer (K2HPO4/KH2PO4, pH 7.4) for each of the used substrates. Both of them contained equivalent concentrations of lecithin (1 mg/mL) or 2-deoxyribose (0.5 mmol/L) and FeCl2 (0.1 mmol/L). In the controls, the tested hydrazones have been omitted and in the samples the effect of the newly designed compounds at the concentrations indicated below the figures has been determined. The obtained samples were incubated at 37 °C for 30 min. The reaction was stopped, and after adding 0.5 mL 2.8% trichloroacetic acid and 0.5 mL of thiobarbituric acid, the samples were heated in boiling water for 20 min. The lecithin containing samples were centrifuged at 3000 rpm for 20 min and the supernatant was aspired out. The results have been presented as a percentage of the control sample, treated only with ferrous iron where we expected maximum oxidative damage under the described conditions.

Compound	reduction of synaptosomal vitality compared to untreated controls (rat brain synaptosomes [1]; 6-OHDA, 1 h)	reduction of GSH level compared to untreated controls (rat brain synaptosomes [2]; 6-OHDA 150 mmol/L, 1 h)	IC50 at 24 h [3]	cell viability protection vs. H2O2-treatment (SH-SY5Y cells; 1 µM)	cell viability protection vs. H2O2-treatment (SH-SY5Y cells; 10 µM)	cell viability protection vs. H2O2-treatment (SH-SY5Y cells; 50 µM)	increase of synaptosomal viability vs. 6-OHDA treatment (rat brain synaptosomes [1])	restoration of GSH level vs. 6-OHDA treatment (rat brain synaptosomes [2])	sample/control absorbance ratio (% of the control), lecithin peroxidation [4]
NCCc1cc(O)c(O)cc1O [6-OHDA, 6-hydroxydopamine, reference compound]	56%	50%	–	–	–	–	–	–	–
COc1ccc2[nH]cc(CCNC(C)=O)c2c1 [Melatonin]	–	–	> 500 µM	20%	29%	52%	68%	70%	75%
C#CCN[C@@H]1CCc2ccccc21 [Rasagiline HCl, Rasagiline]	–	–	> 500 µM	10%	20%	39%	61%	60%	–
